Key:
prickly sida = assay: Test E pre-/postemergence herbicide test; type: in vivo, Sida spinosa; conditions: Preemergence
Method in brief: (§1)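 Greenhouse response scored visually 12 to 14 days after treatment versus controls, 0 meaning no effect and 100 complete control. Compounds, formulated with surfactant in a non-phytotoxic solvent blend, were sprayed either preemergence after sowing or postemergence at the 1- to 4-leaf stage (2 to 18 cm).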

green foxtail = assay: Test E pre-/postemergence herbicide test; type: in vivo, Setaria viridis; conditions: Preemergence
Method in brief: as §1

quackgrass = assay: Test E pre-/postemergence herbicide test; type: in vivo, Elytrigia repens; conditions: Preemergence
Method in brief: as §1

Surinam grass = assay: Test E pre-/postemergence herbicide test; type: in vivo, Urochloa decumbens; conditions: Preemergence
Method in brief: as §1

downy bromegrass = assay: Test E pre-/postemergence herbicide test; type: in vivo, Bromus tectorum; conditions: Preemergence
Method in brief: as §1

guineagrass = assay: Test E pre-/postemergence herbicide test; type: in vivo, Panicum maximum; conditions: Preemergence
Method in brief: as §1

common groundsel = assay: Test E pre-/postemergence herbicide test; type: in vivo, Senecio vulgaris; conditions: Preemergence
Method in brief: as §1

winter barley = assay: Test C postemergence herbicide test; type: in vivo, Hordeum vulgare
Method in brief: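 Greenhouse test with a 12–14 day hold after application and visual comparison with controls. Emerged plants were 1- to 4-leaf stage (2–18 cm) when sprayed postemergence, and the paddy barnyardgrass was at 2 leaves under flooded conditions. 100 = complete control.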

broadleaf signalgrass = assay: Test E pre-/postemergence herbicide test; type: in vivo, Brachiaria platyphylla; conditions: Preemergence
Method in brief: as §1

bermudagrass = assay: Test E pre-/postemergence herbicide test; type: in vivo, Cynodon dactylon; conditions: Preemergence
Method in brief: as §1

Italian ryegrass = assay: Test E pre-/postemergence herbicide test; type: in vivo, Lolium multiflorum; conditions: Preemergence
Method in brief: as §1

chickweed = assay: Test C postemergence herbicide test; type: in vivo, Stellaria media
Method in brief: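 After a postemergence application at 1 to 4 leaves (plants 2–18 cm high), or at 2 leaves for barnyardgrass in flooded paddy, plants stayed in the greenhouse for 12 to 14 days. Damage was then judged visually relative to control plants, with 100 indicating complete control.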

johnsongrass = assay: Test E pre-/postemergence herbicide test; type: in vivo, Sorghum halepense; conditions: Preemergence
Method in brief: as §1

[1] = 125 g ai/ha, scale 0 (no effect) to 100 (complete control)
[2] = 250 g ai/ha, scale 0 (no effect) to 100 (complete control)
[3] = 500 g ai/ha, scale 0 (no effect) to 100 (complete control)
[4] = Postemergence, 500 g ai/ha, scale 0 to 100
[5] = Postemergence, 250 g ai/ha, scale 0 to 100, 0 no effect, 100 complete control

## CCNC(=O)c1cccc(NC(=O)c2cc(C(C)(C)C)nn2CC)n1 [Compound 144]
Prickly sida; 62 g ai/ha, scale 0 to 100
  Plant response rating, Prickly Sida: 10
Prickly sida; [1]
  Plant response rating, Prickly Sida: 90
Prickly sida; [2]
  Plant response rating, Prickly Sida: 90
Prickly sida; [3]
  Plant response rating, Prickly Sida: 95
Green foxtail; 62 g ai/ha, scale 0 to 100
  Plant response rating, Foxtail, Green: 10
Green foxtail; [1]
  Plant response rating, Foxtail, Green: 50
Green foxtail; [2]
  Plant response rating, Foxtail, Green: 80
Green foxtail; [3]
  Plant response rating, Foxtail, Green: 90
quackgrass; 62 g ai/ha, scale 0 to 100
  Plant response rating, Quackgrass: 10
quackgrass; [1]
  Plant response rating, Quackgrass: 30
quackgrass; [2]
  Plant response rating, Quackgrass: 70
quackgrass; [3]
  Plant response rating, Quackgrass: 80
Surinam grass; 62 g ai/ha, scale 0 to 100
  Plant response rating, Surinam Grass: 10
Surinam grass; 125 g ai/ha, scale 0 to 100
  Plant response rating, Surinam Grass: 50
Surinam grass; [3]
  Plant response rating, Surinam Grass: 70
Downy bromegrass; 62 g ai/ha, scale 0 to 100
  Plant response rating, Bromegrass, Downy: 20
Downy bromegrass; [1]
  Plant response rating, Bromegrass, Downy: 50
Downy bromegrass; [2]
  Plant response rating, Bromegrass, Downy: 60
Downy bromegrass; [3]
  Plant response rating, Bromegrass, Downy: 80
guineagrass; 62 g ai/ha, scale 0 to 100
  Plant response rating, Guineagrass: 10
guineagrass; [1]
  Plant response rating, Guineagrass: 20
guineagrass; [2]
  Plant response rating, Guineagrass: 60
guineagrass; [3]
  Plant response rating, Guineagrass: 80
Common groundsel; 62 g ai/ha, scale 0 to 100
  Plant response rating, Groundsel: 10
Common groundsel; [1]
  Plant response rating, Groundsel: 100
Common groundsel; [2]
  Plant response rating, Groundsel: 100
Common groundsel; [3]
  Plant response rating, Groundsel: 100
Winter barley; [4]
  Barley, Winter plant response rating: 40
Winter barley; Postemergence, 125 g ai/ha, scale 0 to 100, 0 no effect, 100 complete control
  Plant response rating, Barley, Winter: 20
Winter barley; [5]
  Plant response rating, Barley, Winter: 30
Winter barley; postemergence, 62 g ai/ha, scale 0 to 100 (0 no effect, 100 complete control)
  Plant response rating, Barley, Winter: 0
Broadleaf signalgrass; 62 g ai/ha, scale 0 to 100
  Plant response rating, Signalgrass: 10
Broadleaf signalgrass; [1]
  Plant response rating, Signalgrass: 20
Broadleaf signalgrass; [2]
  Plant response rating, Signalgrass: 30
Broadleaf signalgrass; [3]
  Plant response rating, Signalgrass: 50
bermudagrass; 62 g ai/ha, scale 0 to 100
  Plant response rating, Bermudagrass: 50
bermudagrass; [1]
  Plant response rating, Bermudagrass: 80
bermudagrass; [2]
  Plant response rating, Bermudagrass: 85
bermudagrass; [3]
  Plant response rating, Bermudagrass: 90
Italian ryegrass; 62 g ai/ha, scale 0 to 100
  Plant response rating, Ryegrass, Italian: 10
Italian ryegrass; [1]
  Plant response rating, Ryegrass, Italian: 60
Italian ryegrass; [2]
  Plant response rating, Ryegrass, Italian: 80
Italian ryegrass; [3]
  Plant response rating, Ryegrass, Italian: 95
chickweed; [4]
  Chickweed plant response rating: 100
chickweed; [5]
  Plant response rating, Chickweed: 100
chickweed; postemergence, 125 g ai/ha, scale 0 to 100
  Plant response rating, Chickweed: 100
chickweed; postemergence, 62 g ai/ha, scale 0 to 100
  Plant response rating, Chickweed: 100
johnsongrass; 62 g ai/ha, scale 0 to 100
  Plant response rating, Johnsongrass: 30
johnsongrass; [1]
  Plant response rating, Johnsongrass: 50
johnsongrass; [2]
  Plant response rating, Johnsongrass: 60
johnsongrass; [3]
  Plant response rating, Johnsongrass: 60
